# Measured values reported in ChEMBL document CHEMBL3832761, “MMV Pathogen Box Bioactivity Data” (2017).
# Legend:
# [1] = test system: Plasmodium falciparum; experiment: Antimalarial activity: Gametocytes Plasmodium falciparum NF54 Gametocytes Stage V: inhibition at 10 uM (%); assay type: functional
# [2] = test system: Plasmodium falciparum; experiment: Antimalarial activity: Asexual Blood Stage Plasmodium falciparum Dd2 IC50 (uM); assay type: functional, organism-based
# [3] = test system: Plasmodium berghei; experiment: Antimalarial activity: Liver Stage Plasmodium berghei sporozoite Luciferase assay IC50 (uM); assay type: functional, organism-based
# [4] = test system: Plasmodium berghei; experiment: Antimalarial activity: Liver Stage Plasmodium berghei sporozoite Luciferase assay: inhibition at 10 uM (%); assay type: functional
# [5] = test system: Plasmodium falciparum; experiment: Antimalarial activity: Asexual Blood Stage Plasmodium falciparum 3D7 IC50 (uM); assay type: functional, organism-based
# [6] = test system: HepG2; experiment: Cytotoxicity data HepG2 CC20 (uM); assay type: functional
# [7] = test system: Plasmodium falciparum; experiment: Antimalarial activity: Asexual Blood Stage Plasmodium falciparum W2 IC50 (uM); assay type: functional, organism-based
# [8] = test system: Plasmodium falciparum; experiment: Antimalarial activity: Gametocytes Plasmodium falciparum NF54 Gametocytes Stage V IC50 (uM); assay type: functional, organism-based
# [9] = test system: HepG2; experiment: HepG2 CC50 (uM) Cytotoxicity; assay type: functional; conditions: Homo sapiens
# [10] = test system: HepG2; experiment: HepG2 inhibition at 10 uM (%) Cytotoxicity; assay type: functional; conditions: Homo sapiens
Structure (SMILES),Inhibition [1] [%],IC50 [2] [nM],IC50 [3] [nM],Inhibition [4] [%],IC50 [5] [nM],CC20 [6] [nM],IC50 [7] [nM],IC50 [8] [nM],CC50 [9] [nM],inhibition at 10 µM [10] [%]
N#Cc1ccc(-c2cnc(N)c(-c3ccc(C(N)=O)cc3)n2)cc1,87,110,280,100,90,12000,210,140,> 10000,
CN(C(=O)c1cc2c(-c3cncnc3)cccc2[nH]1)c1ccccc1,81,670,1020,100,720,6040,790,570,> 10000,
Cc1ccc(-c2nc(CN(Cc3ccccn3)C(C)C)cs2)o1,,> 2000,,,> 2000,,,450,,47
c1ccc(-c2cc(N3CCCCC3)c3ccccc3n2)nc1,93,> 2000,9700,92,> 2000,22900,,510,> 10000,
CCc1ccc(C(NCc2nc(N)nc(N(C)C)n2)C(C)C)cc1 (stereo unspecified),,> 2000,,,> 2000,,,80,,
O=C(Nc1nc(-c2ccccn2)cs1)C1CC1c1ccccc1F (stereo unspecified),,> 2000,,,> 2000,,,520,,25
CCN(CC)S(=O)(=O)c1ccc(Cl)c(C(=O)Nc2ccc3nc(C)sc3c2)c1,86,550,1310,100,500,10000,590,3910,> 10000,
CN1CCC(NCc2cccc(-c3ccc(S(=O)(=O)NCc4ccccc4)cc3)c2)CC1,95,2060,4550,99,820,4150,2140,1420,> 10000,
O=C(Nc1ccccc1)c1ccc(-c2cc3ccncc3cc2OC2CCNCC2)s1,96,1240,7370,100,570,3650,1560,2280,> 7500,
CCCn1c(NC(=O)c2ccc3ccccc3n2)nc2ccccc21,,> 2000,,,> 2000,,,560,,24
CCNC(=O)C(C)Nc1nc(-c2cccnc2)nc2sc(C)c(C)c12 (stereo unspecified),,> 2000,,,> 2000,,,610,,0
CCn1ncc2c(NC3CCOCC3)c(CNC(=O)c3ccnn3C)c(C)nc21,89,390,1600,100,280,24500,600,240,> 10000,
